System: not listed separately
Assay: Apparent permeability across basolateral to apical side in human Caco-2 cells at 10 uM incubated for 1 hrs by LC-MS/MS analysis
Conditions: not given

Row | Papp B→A at 1 h, 10 µM | Structure (SMILES)
1 | 13.6 ×10⁻⁶ cm/s | C[C@@H](Nc1nc(NC2CCCC2)nc(C2=CC(O)CCC2)n1)C(F)(F)F (mixture of isomers)
2 | 27.5 ×10⁻⁶ cm/s | C[C@@H](Nc1nc(NC2CCC2)nc(C2=CC(O)CCC2)n1)C(F)(F)F (mixture of isomers)

System: not listed separately
Assay: Metabolic stability in male SD rat liver microsomes assessed as parent compound remaining at 1 uM measured after 30 mins in presence of NADPH by LC-MS analysis
Format: ADME, Microsome
Conditions: Sprague-Dawley, read-out: Stability

Row | remaining at 0.5 h, 1 µM | Structure (SMILES)
3 | 34% | C[C@@H](Nc1nc(NC2CCC2)nc(C2=CC(O)CCC2)n1)C(F)(F)F (mixture of isomers)

System: not listed separately
Assay: Apparent permeability across apical to basolateral side in human Caco-2 cells at 10 uM incubated for 1 hrs by LC-MS/MS analysis
Conditions: not given

Row | Papp A→B at 1 h, 10 µM | Structure (SMILES)
4 | 30.9 ×10⁻⁶ cm/s | C[C@@H](Nc1nc(NC2CCCC2)nc(C2=CC(O)CCC2)n1)C(F)(F)F (mixture of isomers)
5 | 41.4 ×10⁻⁶ cm/s | C[C@@H](Nc1nc(NC2CCC2)nc(C2=CC(O)CCC2)n1)C(F)(F)F (mixture of isomers)

System: not listed separately
Assay: Inhibition of IDH1 R132H mutant in human U-87 MG cells incubated for 72 hrs by measuring 2-HG production by fluorescence based analysis
Format: functional, cell-based, U-87MG ATCC
Conditions: Homo sapiens, U-87 MG, 72 h

Row | IC50 | Structure (SMILES)
6 | 2470 nM | CC(C)CNc1nc(N[C@H](C)C(F)(F)F)nc(C2=CC(O)CCC2)n1 (mixture of isomers)
7 | 733 nM | C[C@@H](Nc1nc(NC2CCCC2)nc(C2=CC(O)CCC2)n1)C(F)(F)F (mixture of isomers)

The next lines start with the molecule.

Row | Structure (SMILES) | IC50
8 | C[C@H](Nc1nc(N[C@H](C)C(F)(F)F)nc(C2=C(F)C(O)C(F)(F)CC2)n1)C(F)(F)F (stereo partly specified) | 1030 nM
9 | C[C@@H](Nc1nc(N[C@H](C)C(F)(F)F)nc(C2=C(F)C(O)C3(CC2)CC3)n1)C(F)(F)F (mixture of isomers) | 3230 nM
10 | C[C@H](Nc1nc(N[C@@H](C)C(F)(F)F)nc(C2=C(F)C(O)C(F)(F)CC2)n1)C(F)(F)F (mixture of isomers) | 1320 nM

Same assay, conditions: u-87mg atcc

Row | IC50 | Structure (SMILES)
11 | 1890 nM | C[C@@H](Nc1nc(N[C@H](C)C(F)(F)F)nc(C2=C(F)C(O)C(F)(F)CC2)n1)C(F)(F)F (stereo in doubt; 42)

System: not listed separately
Assay: Metabolic stability in male ICR mouse liver microsomes assessed as parent compound remaining at 1 uM measured after 30 mins in presence of NADPH by LC-MS analysis
Format: ADME, Microsome
Conditions: read-out: Stability

Row | remaining at 0.5 h, 1 µM | Structure (SMILES)
12 | 15.9% | C[C@@H](Nc1nc(NC2CCC2)nc(C2=CC(O)CCC2)n1)C(F)(F)F (mixture of isomers)

Biological target: Isocitrate dehydrogenase [NADP], mitochondrial (Homo sapiens, UniProt P48735, R140Q)
Sequence (P48735 40-452 R140Q limits assumed): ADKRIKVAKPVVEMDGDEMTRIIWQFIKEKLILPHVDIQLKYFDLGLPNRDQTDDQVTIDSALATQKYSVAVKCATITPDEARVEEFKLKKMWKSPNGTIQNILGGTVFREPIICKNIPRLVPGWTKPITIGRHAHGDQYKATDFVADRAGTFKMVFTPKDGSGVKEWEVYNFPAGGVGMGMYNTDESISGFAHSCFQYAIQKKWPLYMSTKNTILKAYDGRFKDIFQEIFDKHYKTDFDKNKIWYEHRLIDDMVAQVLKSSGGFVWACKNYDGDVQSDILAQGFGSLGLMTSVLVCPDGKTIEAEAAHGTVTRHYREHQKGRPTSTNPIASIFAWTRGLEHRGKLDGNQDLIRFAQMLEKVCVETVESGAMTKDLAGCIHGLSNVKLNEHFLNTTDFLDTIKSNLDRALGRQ
Assay: Inhibition of IDH2 R140Q mutant (unknown origin) using alpha-ketoglutarate as substrate preincubated with compound for 16 hrs followed by substrate addition and measured after 1 hr in presence of NADPH by fluorescence based analysis
Conditions: not given

Row | IC50 | Structure (SMILES)
13 | 21 nM | CC(C)CNc1nc(N[C@H](C)C(F)(F)F)nc(C2=CC(O)CCC2)n1 (mixture of isomers)
14 | 33 nM | C[C@@H](Nc1nc(NC2CCCC2)nc(C2=CC(O)CCC2)n1)C(F)(F)F (mixture of isomers)
15 | 39 nM | C[C@@H](Nc1nc(NC2CCC2)nc(C2=CC(O)CCC2)n1)C(F)(F)F (mixture of isomers)

The next lines start with the molecule.

Row | Structure (SMILES) | IC50
16 | COC1C=C(c2nc(N[C@H](C)C(F)(F)F)nc(N[C@H](C)C(F)(F)F)n2)CCC1 (stereo partly specified) | 1030 nM
17 | C=C(C)c1nc(NC(C)C)nc(N[C@H](C)C(F)(F)F)n1 | 710 nM
18 | CNC1C=C(c2nc(N[C@H](C)C(F)(F)F)nc(N[C@H](C)C(F)(F)F)n2)CCC1 (stereo partly specified) | > 3000 nM
19 | C[C@H](Nc1nc(N[C@H](C)C(F)(F)F)nc(C2=C(F)C(O)C(F)(F)CC2)n1)C(F)(F)F (stereo partly specified) | 166 nM
20 | C[C@@H](Nc1nc(N[C@H](C)C(F)(F)F)nc(C2=C(F)C(O)C3(CC2)CC3)n1)C(F)(F)F (mixture of isomers) | 222 nM
21 | C[C@H](Nc1nc(N[C@@H](C)C(F)(F)F)nc(C2=C(F)C(O)C(F)(F)CC2)n1)C(F)(F)F (mixture of isomers) | 309 nM
22 | C[C@@H](Nc1nc(N[C@H](C)C(F)(F)F)nc(C2=C(F)C(O)C(F)(F)CC2)n1)C(F)(F)F (stereo in doubt; 42) | 145 nM

System: not listed separately
Assay: Inhibition of IDH2 R140Q mutant in human U-87 MG cells incubated for 72 hrs by measuring 2-HG production by fluorescence based analysis
Format: functional, cell-based, U-87MG ATCC
Conditions: Homo sapiens, U-87 MG, 72 h

Row | IC50 | Structure (SMILES)
23 | 100 nM | CC(C)CNc1nc(N[C@H](C)C(F)(F)F)nc(C2=CC(O)CCC2)n1 (mixture of isomers)
24 | 67 nM | C[C@@H](Nc1nc(NC2CCCC2)nc(C2=CC(O)CCC2)n1)C(F)(F)F (mixture of isomers)
25 | 92 nM | C[C@@H](Nc1nc(NC2CCC2)nc(C2=CC(O)CCC2)n1)C(F)(F)F (mixture of isomers)

Second part, the molecule before the results:

Row | Structure (SMILES) | IC50
26 | COC1C=C(c2nc(N[C@H](C)C(F)(F)F)nc(N[C@H](C)C(F)(F)F)n2)CCC1 (stereo partly specified) | 2390 nM
27 | C=C(C)c1nc(NC(C)C)nc(N[C@H](C)C(F)(F)F)n1 | > 10000 nM
28 | C[C@H](Nc1nc(N[C@H](C)C(F)(F)F)nc(C2=C(F)C(O)C(F)(F)CC2)n1)C(F)(F)F (stereo partly specified) | 156 nM
29 | C[C@@H](Nc1nc(N[C@H](C)C(F)(F)F)nc(C2=C(F)C(O)C3(CC2)CC3)n1)C(F)(F)F (mixture of isomers) | 707 nM
30 | C[C@H](Nc1nc(N[C@@H](C)C(F)(F)F)nc(C2=C(F)C(O)C(F)(F)CC2)n1)C(F)(F)F (mixture of isomers) | 174 nM

Same assay, conditions: u-87mg atcc

Row | IC50 | Structure (SMILES)
31 | 845 nM | C[C@@H](Nc1nc(N[C@H](C)C(F)(F)F)nc(C2=C(F)C(O)C(F)(F)CC2)n1)C(F)(F)F (stereo in doubt; 42)

— ChEMBL document CHEMBL6103672, “Discovery of HMPL-306 (Ranosidenib), a New Potent and Selective Dual Inhibitor of Mutant IDH1 and 2 in Clinical Development for Cancer Treatment” (ACS Med Chem Lett, 2025)
